# Experimental data as given in PubChem BioAssay (NCI).
#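 Growth conditions: 96-well plates. Treatment: test compound, 48 hours, 5 concentrations. Analysis: linear interpolation between bracketing concentrations; unreached endpoints set to highest concentration. Abbreviation: GI50, concentration required for 50% inhibition of growth. The concentration for full growth arrest is given as TGI.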
# How the values were obtained:
# Test in all cases: NCI tumour cell line growth inhibition, 48 h
# SF-295 CNS = tested on: SF-295 CNS
# RPMI-8226 leukemia = tested on: RPMI-8226 leukemia
# HCC-2998 colon = tested on: HCC-2998 colon
# HT29 colon = tested on: HT29 colon
# SW-620 colon = tested on: SW-620 colon
# SNB-75 CNS = tested on: SNB-75 CNS
# MCF7 breast = tested on: MCF7 breast
# OVCAR-5 ovarian = tested on: OVCAR-5 ovarian
# NCI-H460 lung = tested on: NCI-H460 lung
# MALME-3M melanoma = tested on: MALME-3M melanoma
# HOP-62 NSCLC = tested on: HOP-62 NSCLC
# SNB-19 CNS = tested on: SNB-19 CNS
# HS 578T breast = tested on: HS 578T breast
# K-562 leukemia = tested on: K-562 leukemia
# NCI/ADR-RES ovarian = tested on: NCI/ADR-RES ovarian
# T-47D breast = tested on: T-47D breast
# NCI-H522 lung = tested on: NCI-H522 lung
# SK-OV-3 ovarian = tested on: SK-OV-3 ovarian
# OVCAR-3 ovarian = tested on: OVCAR-3 ovarian
# SK-MEL-28 melanoma = tested on: SK-MEL-28 melanoma
# RXF 393 renal = tested on: RXF 393 renal
# MDA-MB-435 = tested on: MDA-MB-435
# DU-145 prostate = tested on: DU-145 prostate
# SK-MEL-2 melanoma = tested on: SK-MEL-2 melanoma
# HCT-15 colon = tested on: HCT-15 colon
# MOLT-4 leukemia = tested on: MOLT-4 leukemia
# IGROV1 ovarian = tested on: IGROV1 ovarian
# M14 melanoma = tested on: M14 melanoma
# 786-0 renal = tested on: 786-0 renal
# SN12C renal = tested on: SN12C renal
# SK-MEL-5 melanoma = tested on: SK-MEL-5 melanoma
# CCRF-CEM leukemia = tested on: CCRF-CEM leukemia
# HL-60(TB) leukemia = tested on: HL-60(TB) leukemia
# UACC-62 melanoma = tested on: UACC-62 melanoma
# NCI-H23 lung = tested on: NCI-H23 lung
# LOX IMVI melanoma = tested on: LOX IMVI melanoma
# TK-10 renal = tested on: TK-10 renal
# U251 CNS = tested on: U251 CNS
# EKVX NSCLC = tested on: EKVX NSCLC
# SF-539 CNS = tested on: SF-539 CNS
# UO-31 renal = tested on: UO-31 renal
# UACC-257 melanoma = tested on: UACC-257 melanoma
# OVCAR-8 ovarian = tested on: OVCAR-8 ovarian
# PC-3 prostate = tested on: PC-3 prostate
# HCT-116 colon = tested on: HCT-116 colon
# ACHN renal = tested on: ACHN renal
# KM12 colon = tested on: KM12 colon
# NCI-H226 lung = tested on: NCI-H226 lung
# SF-268 CNS = tested on: SF-268 CNS
# COLO 205 colon = tested on: COLO 205 colon
# A549 NSCLC = tested on: A549 NSCLC
# SR leukemia = tested on: SR leukemia
# HOP-92 NSCLC = tested on: HOP-92 NSCLC
# CAKI-1 renal = tested on: CAKI-1 renal
# MDA-MB-231 breast = tested on: MDA-MB-231 breast
# BT-549 breast = tested on: BT-549 breast
# A498 renal = tested on: A498 renal
# OVCAR-4 ovarian = tested on: OVCAR-4 ovarian
compound,measurement,setting,value
Cc1nn(-c2ccccc2)c2ncnc(N/N=C/c3ccccc3O)c12,GI50,SF-295 CNS,407 nM
same,TGI,SF-295 CNS,11700 nM
same,GI50,RPMI-8226 leukemia,394 nM
same,TGI,RPMI-8226 leukemia,33200 nM
same,GI50,HCC-2998 colon,793 nM
same,TGI,HCC-2998 colon,35200 nM
same,GI50,HT29 colon,1120 nM
same,TGI,HT29 colon,> 50000 nM
same,GI50,SW-620 colon,537 nM
same,TGI,SW-620 colon,> 96000 nM
same,GI50,SNB-75 CNS,267 nM
same,TGI,SNB-75 CNS,2990 nM
same,GI50,MCF7 breast,353 nM
same,TGI,MCF7 breast,12500 nM
same,GI50,OVCAR-5 ovarian,3850 nM
same,TGI,OVCAR-5 ovarian,> 100000 nM
same,GI50,NCI-H460 lung,382 nM
same,TGI,NCI-H460 lung,> 78400 nM
same,GI50,MALME-3M melanoma,505 nM
same,TGI,MALME-3M melanoma,11800 nM
same,GI50,HOP-62 NSCLC,288 nM
same,TGI,HOP-62 NSCLC,6230 nM
same,GI50,SNB-19 CNS,507 nM
same,TGI,SNB-19 CNS,> 100000 nM
same,GI50,HS 578T breast,1830 nM
same,TGI,HS 578T breast,> 100000 nM
same,GI50,K-562 leukemia,397 nM
same,TGI,K-562 leukemia,> 100000 nM
same,GI50,NCI/ADR-RES ovarian,331 nM
same,TGI,NCI/ADR-RES ovarian,8540 nM
same,GI50,T-47D breast,1920 nM
same,TGI,T-47D breast,13700 nM
same,GI50,NCI-H522 lung,416 nM
same,TGI,NCI-H522 lung,44900 nM
same,GI50,SK-OV-3 ovarian,465 nM
same,TGI,SK-OV-3 ovarian,4720 nM
same,GI50,OVCAR-3 ovarian,306 nM
same,TGI,OVCAR-3 ovarian,46300 nM
same,GI50,SK-MEL-28 melanoma,481 nM
same,TGI,SK-MEL-28 melanoma,> 100000 nM
same,GI50,RXF 393 renal,882 nM
same,TGI,RXF 393 renal,9110 nM
same,GI50,MDA-MB-435,544 nM
same,TGI,MDA-MB-435,> 100000 nM
same,GI50,DU-145 prostate,318 nM
same,TGI,DU-145 prostate,> 100000 nM
same,GI50,SK-MEL-2 melanoma,633 nM
same,TGI,SK-MEL-2 melanoma,47100 nM
same,GI50,HCT-15 colon,266 nM
same,TGI,HCT-15 colon,17500 nM
same,GI50,MOLT-4 leukemia,280 nM
same,TGI,MOLT-4 leukemia,> 59000 nM
same,GI50,IGROV1 ovarian,597 nM
same,TGI,IGROV1 ovarian,16500 nM
same,GI50,M14 melanoma,270 nM
same,TGI,M14 melanoma,1640 nM
same,GI50,786-0 renal,396 nM
same,TGI,786-0 renal,27700 nM
same,GI50,SN12C renal,520 nM
same,TGI,SN12C renal,> 49600 nM
same,GI50,SK-MEL-5 melanoma,621 nM
same,TGI,SK-MEL-5 melanoma,4720 nM
same,GI50,CCRF-CEM leukemia,140 nM
same,TGI,CCRF-CEM leukemia,> 100000 nM
same,GI50,HL-60(TB) leukemia,370 nM
same,TGI,HL-60(TB) leukemia,> 100000 nM
same,GI50,UACC-62 melanoma,2010 nM
same,TGI,UACC-62 melanoma,12100 nM
same,GI50,NCI-H23 lung,509 nM
same,TGI,NCI-H23 lung,25500 nM
same,GI50,LOX IMVI melanoma,317 nM
same,TGI,LOX IMVI melanoma,5730 nM
same,GI50,TK-10 renal,2970 nM
same,TGI,TK-10 renal,> 70600 nM
same,GI50,U251 CNS,425 nM
same,TGI,U251 CNS,> 49500 nM
same,GI50,EKVX NSCLC,391 nM
same,TGI,EKVX NSCLC,> 43300 nM
same,GI50,SF-539 CNS,396 nM
same,TGI,SF-539 CNS,7130 nM
same,GI50,UO-31 renal,325 nM
same,TGI,UO-31 renal,2850 nM
same,GI50,UACC-257 melanoma,1810 nM
same,TGI,UACC-257 melanoma,31100 nM
same,GI50,OVCAR-8 ovarian,354 nM
same,TGI,OVCAR-8 ovarian,> 100000 nM
same,GI50,PC-3 prostate,345 nM
same,TGI,PC-3 prostate,> 49700 nM
same,GI50,HCT-116 colon,422 nM
same,TGI,HCT-116 colon,27300 nM
same,GI50,ACHN renal,283 nM
same,TGI,ACHN renal,40400 nM
same,GI50,KM12 colon,382 nM
same,TGI,KM12 colon,> 100000 nM
same,GI50,NCI-H226 lung,2550 nM
same,TGI,NCI-H226 lung,8590 nM
same,GI50,SF-268 CNS,300 nM
same,TGI,SF-268 CNS,> 100000 nM
same,GI50,COLO 205 colon,385 nM
same,TGI,COLO 205 colon,22900 nM
same,GI50,A549 NSCLC,936 nM
same,TGI,A549 NSCLC,> 41900 nM
same,GI50,SR leukemia,232 nM
same,TGI,SR leukemia,> 100000 nM
same,GI50,HOP-92 NSCLC,455 nM
same,TGI,HOP-92 NSCLC,6750 nM
same,GI50,CAKI-1 renal,943 nM
same,TGI,CAKI-1 renal,8860 nM
same,GI50,MDA-MB-231 breast,529 nM
same,TGI,MDA-MB-231 breast,53300 nM
same,GI50,BT-549 breast,996 nM
same,TGI,BT-549 breast,41900 nM
same,GI50,A498 renal,2820 nM
same,TGI,A498 renal,11200 nM
same,GI50,OVCAR-4 ovarian,303 nM
same,TGI,OVCAR-4 ovarian,> 54300 nM
